Experiments:
[1] = Saturation limit of chlorine dioxide in water; format: physicochemical; conditions: 5° C. and normal pressure
Source text: With the method according to the invention, chlorine dioxide solutions can be produced in any desired and/or suitable concentration. Preferably, aqueous solutions of up to about 2 wt %, preferably about 1 wt % of chlorine dioxide are produced with the method according to the invention. Chlorine dioxide solutions with higher concentrations are more difficult to obtain because of the limited solubility of chlorine dioxide in water, but they can nevertheless be realized. When using higher concentrations of chlorite for the production of the chlorine dioxide solutions according to the invention, in particular when using chlorite concentrations in the range of the saturation solubility of the corresponding chlorite salt, aqueous chlorine dioxide solutions with a concentration of up to about 4.5 wt % can be produced. The value of about 4.5 wt % represents the saturation limit of chlorine dioxide in water determined experimentally at 5° C. and normal pressure. With higher pressure, even free chlorine dioxide phases can be generated in water. […] This means that the solubility of chlorine dioxide is higher, the less foreign matter there is in the solution. […]

[2] = aqueous solution, 20° C.; cited from earlier work

SMILES | saturation limit of chlorine dioxide in water [1] | saturation concentration [2]
[O][Cl+][O-] [chlorine dioxide] | about 4.5 wt % | –
O=S(=O)([O-])OOS(=O)(=O)[O-].[Na+].[Na+] [sodium peroxodisulfate] | – | about 54.5 wt %

Reference: patent publication US9630841B2, “Method for producing an aqueous stable chlorine dioxide solution” (A.P.F. AQUA SYSTEM AG, priority 2010, dated 2017)
